Experimental data reported in patent US20160002204A1 (Board of Regents, The University of Texas System, priority 2014, published 2016).

What was measured:
[1] = biological target: T1, GLS1 (purified recombinant human GAC) (Homo sapiens, UniProt O94925); test: GLS1 enzymatic activity assay (dual-coupled, Amplex UltraRed/resorufin); format: biochemical
T1 sequence (O94925 55-598 isoform O94925-3 limits assumed): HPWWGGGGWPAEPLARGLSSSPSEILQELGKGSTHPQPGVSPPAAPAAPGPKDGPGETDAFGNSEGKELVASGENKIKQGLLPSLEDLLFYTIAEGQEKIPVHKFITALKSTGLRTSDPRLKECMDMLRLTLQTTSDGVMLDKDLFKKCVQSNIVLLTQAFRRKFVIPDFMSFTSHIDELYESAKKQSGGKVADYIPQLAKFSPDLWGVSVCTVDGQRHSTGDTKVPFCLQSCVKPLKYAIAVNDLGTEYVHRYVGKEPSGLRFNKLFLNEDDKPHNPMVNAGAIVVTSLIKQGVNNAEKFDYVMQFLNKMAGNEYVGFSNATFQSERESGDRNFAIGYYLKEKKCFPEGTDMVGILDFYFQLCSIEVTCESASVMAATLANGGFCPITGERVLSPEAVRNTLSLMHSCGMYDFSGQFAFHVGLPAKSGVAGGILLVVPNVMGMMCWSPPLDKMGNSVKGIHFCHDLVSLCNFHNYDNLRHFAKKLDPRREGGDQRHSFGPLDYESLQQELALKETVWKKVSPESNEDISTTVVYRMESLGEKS
Outline: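 GAC activity measured by coupling glutamate to glutamate oxidase and HRP, generating resorufin from Amplex UltraRed. Enzyme (2 nM) preincubated with 50 mM potassium phosphate 10 min at room temperature, then inhibitor 10 min; 1 mM glutamine substrate, 1% DMSO. Fluorescence 530/590 nm, kinetic or 20-min endpoint; IC50 from four-parameter logistic fit.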

A549 cells = test: A549 proliferation (viability) assay, Cell Titer Fluor, 72 hours; format: cell-based; settings: Homo sapiens
Outline: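 Compound was added to A549 cells (1000/well, pre-grown 24 h in RPMI 1640 plus 10% dialyzed FBS) at 0.5% DMSO and left 72 h under 37 °C, 5% CO2, ambient O2. Live-cell fluorescence (Cell Titer Fluor) gave the EC50.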

SMILES	IC50 [1]	EC50 (A549 cells)
O=C(NCc1cc(C(F)(F)F)ccn1)c1cn(CC(F)CCn2ccc(COc3c(F)cccc3F)cc2=O)nn1 (stereo not drawn) [Example 485, 1-{4-[4-(2,6-difluorophenoxymethyl)-2-oxo-1,2-dihydropyridin-1-yl]-2-fluorobutyl}-N-{[4-(trifluoromethyl)pyridin-2-yl]methyl}-1H-1,2,3-triazole-4-carboxamide]	100 to 500 nM	100 to 500 nM
O=C(NCc1cc(C(F)(F)F)ccn1)c1cn(CC(F)CCn2ccc(COc3ccc(Cl)cc3)cc2=O)nn1 (stereo not drawn) [Example 486, 1-{4-[4-(4-chlorophenoxymethyl)-2-oxo-1,2-dihydropyridin-1-yl]-2-fluorobutyl}-N-{[4-(trifluoromethyl)pyridin-2-yl]methyl}-1H-1,2,3-triazole-4-carboxamide]	< 100 nM	< 100 nM
O=C(Nc1ccn(CCC(F)Cn2cc(C(=O)NCc3cccc(OC(F)(F)F)c3)nn2)c(=O)n1)OCc1cccc(OC(F)(F)F)c1 (stereo not drawn) [Example 491, 3-(trifluoromethoxy)benzyl(1-(3-fluoro-4-(4-((3-(trifluoromethoxy)benzyl)carbamoyl)-1H-1,2,3-triazol-1-yl)butyl)-2-oxo-1,2-dihydropyrimidin-4-yl)carbamate]	< 100 nM	< 100 nM
CC(C)(C)COC(=O)Nc1ccn(CCC(F)Cn2cc(C(=O)NCc3cc(C(F)(F)F)ccn3)nn2)c(=O)n1 (stereo not drawn) [Example 492, 2,2-dimethylpropyl N-(1-{3-fluoro-4-[4-({[4-(trifluoromethyl)pyridin-2-yl]methyl}carbamoyl)-1H-1,2,3-triazol-1-yl]butyl}-2-oxo-1,2-dihydropyrimidin-4-yl)carbamate]	< 100 nM	< 100 nM
CC(C)(C)COC(=O)Nc1ccn(CCC(F)Cn2cc(C(=O)NCc3cccc(OC(F)(F)F)c3)nn2)c(=O)n1 (stereo not drawn) [Example 493, 2,2-dimethylpropyl N-(1-{3-fluoro-4-[4-({[3-(trifluoro-methoxy)phenyl]methyl}carbamoyl)-1H-1,2,3-triazol-1-yl]butyl}-2-oxo-1,2-dihydropyrimidin-4-yl)carbamate]	< 100 nM	< 100 nM
O=C(NCc1cc(C(F)(F)F)ccn1)c1cn(CC(F)CCn2ccc(Cn3ccccc3=O)cc2=O)nn1 (stereo not drawn) [Example 494, 1-(2-fluoro-4-{2-oxo-4-[(2-oxo-1,2-dihydropyridin-1-yl)methyl]-1,2-dihydropyridin-1-yl}butyl)-N-{[4-(trifluoromethyl)pyridin-2-yl]methyl}-1H-1,2,3-triazole-4-carboxamide]	500 to 5000 nM	> 5000 nM
CC(OC(=O)Nc1ccn(CCC(F)Cn2cc(C(=O)NCc3cccc(OC(F)(F)F)c3)nn2)c(=O)n1)c1ccccc1 (stereo not drawn) [Example 497, 1-phenylethyl N-(1-{3-fluoro-4-[4-({[3-(trifluoromethoxy)phenyl]methyl}carbamoyl)-1H-1,2,3-triazol-1-yl]butyl}-2-oxo-1,2-dihydropyrimidin-4-yl)carbamate]	< 100 nM	100 to 500 nM
O=C(Nc1ccn(CCC(F)Cn2cc(C(=O)NCc3cccc(OC(F)(F)F)c3)nn2)c(=O)n1)OC1CCC(F)(F)CC1 (stereo not drawn) [Example 498, 4,4-difluorocyclohexyl N-(1-{3-fluoro-4-[4-({[3-(trifluoro-methoxy)phenyl]methyl}carbamoyl)-1H-1,2,3-triazol-1-yl]butyl}-2-oxo-1,2-dihydropyrimidin-4-yl)carbamate]	< 100 nM	< 100 nM
O=C(Nc1ccn(CCC(F)Cn2cc(C(=O)NCc3cc(C(F)(F)F)ccn3)nn2)c(=O)n1)OCc1cccc(OC(F)(F)F)c1 (stereo not drawn) [Example 500, [3-(trifluoromethoxy)phenyl]methyl N-(1-{3-fluoro-4-[4-({[4-(trifluoromethyl)pyridin-2-yl]methyl}carbamoyl)-1H-1,2,3-triazol-1-yl]butyl}-2-oxo-1,2-dihydropyrimidin-4-yl)carbamate]	< 100 nM	< 100 nM

The next lines start with the values.

IC50 [1]	EC50 (A549 cells)	SMILES
100 to 500 nM	500 to 5000 nM	O=C(NCc1cccc(OC(F)(F)F)c1)c1cn(CC(F)CCn2ccc(COc3ccccn3)cc2=O)nn1 (stereo not drawn) [Example 480, 1-(2-fluoro-4-{2-oxo-4-[(pyridin-2-yloxy)methyl]-1,2-dihydropyridin-1-yl}butyl)-N-{[3-(trifluoromethoxy)phenyl]methyl}-1H-1,2,3-triazole-4-carboxamide]
< 100 nM	100 to 500 nM	O=C(NCc1cc(C(F)(F)F)ccn1)c1cn(CC(F)CCn2ccc(COc3cccc(Cl)c3)cc2=O)nn1 (stereo not drawn) [Example 481, 1-{4-[4-(3-chlorophenoxymethyl)-2-oxo-1,2-dihydropyridin-1-yl]-2-fluorobutyl}-N-{[4-(trifluoromethyl)pyridin-2-yl]methyl}-1H-1,2,3-triazole-4-carboxamide]
< 100 nM	100 to 500 nM	O=C(NCc1cc(C(F)(F)F)ccn1)c1cn(CC(F)CCn2ccc(COc3cccc(F)c3)cc2=O)nn1 (stereo not drawn) [Example 482, 1-{2-fluoro-4-[4-(3-fluorophenoxymethyl)-2-oxo-1,2-dihydropyridin-1-yl]butyl}-N-{[4-(trifluoromethyl)pyridin-2-yl]methyl}-1H-1,2,3-triazole-4-carboxamide]
< 100 nM	100 to 500 nM	O=C(NCc1cc(C(F)(F)F)ccn1)c1cn(CC(F)CCn2ccc(COc3cccc(OC(F)(F)F)c3)cc2=O)nn1 (stereo not drawn) [Example 483, 1-(2-fluoro-4-{2-oxo-4-[3-(trifluoromethoxy)phenoxymethyl]-1,2-dihydropyridin-1-yl}butyl)-N-{[4-(trifluoromethyl)pyridin-2-yl]methyl}-1H-1,2,3-triazole-4-carboxamide]
< 100 nM	100 to 500 nM	O=C(NCc1cc(C(F)(F)F)ccn1)c1cn(CC(F)CCn2ccc(COc3ccc(F)cc3F)cc2=O)nn1 (stereo not drawn) [Example 484, 1-{4-[4-(2,4-difluorophenoxymethyl)-2-oxo-1,2-dihydropyridin-1-yl]-2-fluorobutyl}-N-{[4-(trifluoromethyl)pyridin-2-yl]methyl}-1H-1,2,3-triazole-4-carboxamide]
100 to 500 nM	100 to 500 nM	O=C(NCc1cc(C(F)(F)F)ccn1)c1cn(CC(F)CCn2ccc(COc3ccccc3F)cc2=O)nn1 (stereo not drawn) [Example 487, 1-{2-fluoro-4-[4-(2-fluorophenoxymethyl)-2-oxo-1,2-dihydropyridin-1-yl]butyl}-N-{[4-(trifluoromethyl)pyridin-2-yl]methyl}-1H-1,2,3-triazole-4-carboxamide]
< 100 nM	< 100 nM	O=C(Nc1ccn(CCC(F)Cn2cc(C(=O)NCc3cc(C(F)(F)F)ccn3)nn2)c(=O)n1)OCc1ccccc1 (stereo not drawn) [Example 488, benzyl N-(1-{3-fluoro-4-[4-({[4-(trifluoromethyl)pyridin-2-yl]methyl}carbamoyl)-1H-1,2,3-triazol-1-yl]butyl}-2-oxo-1,2-dihydropyrimidin-4-yl)carbamate]
< 100 nM	< 100 nM	O=C(Nc1ccn(CCC(F)Cn2cc(C(=O)NCc3cccc(OC(F)(F)F)c3)nn2)c(=O)n1)OCc1ccccc1F (stereo not drawn) [Example 489, (2-fluorophenyl)methyl N-(1-{3-fluoro-4-[4-({[3-(trifluoro-methoxy)phenyl]methyl}carbamoyl)-1H-1,2,3-triazol-1-yl]butyl}-2-oxo-1,2-dihydropyrimidin-4-yl)carbamate]
< 100 nM	100 to 500 nM	CC(C)COC(=O)Nc1ccn(CCC(F)Cn2cc(C(=O)NCc3cc(C(F)(F)F)ccn3)nn2)c(=O)n1 (stereo not drawn) [Example 490, 2-methylpropyl N-(1-{3-fluoro-4-[4-({[4-(trifluoromethyl)pyridin-2-yl]methyl}carbamoyl)-1H-1,2,3-triazol-1-yl]butyl}-2-oxo-1,2-dihydropyrimidin-4-yl)carbamate]
< 100 nM	500 to 5000 nM	O=C(Nc1ccn(CCC(F)Cn2cc(C(=O)NCc3cc(C(F)(F)F)ccn3)nn2)c(=O)n1)OC1CCC(F)(F)CC1 (stereo not drawn) [Example 495, 4,4-difluorocyclohexyl N-(1-{3-fluoro-4-[4-({[4-(trifluoromethyl)pyridin-2-yl]methyl}carbamoyl)-1H-1,2,3-triazol-1-yl]butyl}-2-oxo-1,2-dihydropyrimidin-4-yl)carbamate]
500 to 5000 nM	> 5000 nM	O=C(Nc1ccn(CCC(F)Cn2cc(C(=O)NCc3cc(C(F)(F)F)ccn3)nn2)c(=O)n1)NC1CCC1 (stereo not drawn) [Example 496, 1-(4-{4-[(cyclobutylcarbamoyl)amino]-2-oxo-1,2-dihydropyrimidin-1-yl}-2-fluorobutyl)-N-{[4-(trifluoromethyl)pyridin-2-yl]methyl}-1H-1,2,3-triazole-4-carboxamide]
500 to 5000 nM	> 5000 nM	O=C(Nc1ccn(CCC(F)Cn2cc(C(=O)NCc3cccc(OC(F)(F)F)c3)nn2)c(=O)n1)NC1CCC1 (stereo not drawn) [Example 499, 1-(4-{4-[(cyclobutylcarbamoyl)amino]-2-oxo-1,2-dihydropyrimidin-1-yl}-2-fluorobutyl)-N-{[3-(trifluoromethoxy)phenyl]methyl}-1H-1,2,3-triazole-4-carboxamide]
